Data reported in US20230041563A1, “N-(1,3,4-OXADIAZOL-2-YL)ARYLCARBOXAMIDES OR SALTS THEREOF, PREPARATION METHODS, HERBICIDAL COMPOSITIONS AND USES THEREOF” (priority 2018, published 2023).

Columns and labels:
[1] = system: Abutilon theophrasti; experiment: Weeding effect in post-emergence stage (greenhouse pot spray); assay type: in vivo
Summary of the method: (§1)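 Fresh-weight control rate was assessed 3 weeks after post-emergence spray-tower application at doses of 500–15 g a.i./ha, triplicate. Weeds were treated at the 2–3 leaf stage, 2 weeks post-sowing, using acetone solutions with Tween 80 plus 1.5 L/ha methyl oleate emulsifiable concentrate.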

[2] = system: Digitaria sanguinalis; experiment: as above; assay type: in vivo
Summary of the method: as §1

[3] = system: Echinochloa crusgalli; experiment: as above; assay type: in vivo
Summary of the method: as §1

[4] = system: Setaria viridis; experiment: as above; assay type: in vivo; settings: Table 3, dose 60 g a.i./ha
Summary of the method: as §1

[5] = system: Amaranthus retroflexus; experiment: as above; assay type: in vivo
Summary of the method: as §1

[6] = system: Stellaria media; experiment: as above; assay type: in vivo
Summary of the method: as §1

[7] = system: Echinochloa crusgali; experiment: Transplanted rice safety evaluation and weed control effect evaluation in rice field; assay type: in vivo; settings: Table 7, dose 125 g a.i./ha, 14 days after treatment
Summary of the method: (§2)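 Paddy-soil pots, seeds sown and flooded (0.5-1 cm, then 3-4 cm water); Sagittaria grown from tubers. WP or SC dilutions dripped on at 0.5-leaf stage (Sagittaria at primary leaf). Visual 0-5 scoring of weeds at 14 days, rice at 21 days.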

[8] = system: Monochoria vaginalis; experiment: as above; assay type: in vivo; settings: Table 7, dose 125 g a.i./ha, 14 days after treatment
Summary of the method: as §2

[9] = system: Scirpus juncoides; experiment: as above; assay type: in vivo; settings: Table 7, dose 125 g a.i./ha, 14 days after treatment
Summary of the method: as §2

[10] = system: Rice; experiment: as above; assay type: in vivo, rice (japonica rice/Indica rice); settings: Table 7, dose 125 g a.i./ha, 21 days after treatment
Summary of the method: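 Japonica and Indica rice at 3-leaf stage transplanted into flooded paddy soil (3-4 cm water). Compound applied 5 days after transplanting. Weeds scored visually on 0-5 scale at 14 days; rice injury at 21 days.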

CCSc1c(C(F)(F)F)ccc(C(=O)Nc2nnc(C)o2)c1F [Compound 1-4]
Abutilion theophrasti (activity level) ([1]; Table 2, dose 125 g a.i./ha): 5 (Level 5: growth control rate is above 85%) | Abutilion theophrasti (activity level) ([1]; Table 2, dose 250 g a.i./ha): 5 (Level 5: growth control rate is above 85%) | Abutilon theophrasti (activity level) ([1]; Table 3, dose 60 g a.i./ha): 5 (Level 5: growth control rate is above 85%) | Digitaria sanguinalis (activity level) ([2]; Table 2, dose 125 g a.i./ha): 5 (Level 5: growth control rate is above 85%) | Digitaria sanguinalis (activity level) ([2]; Table 2, dose 250 g a.i./ha): 5 (Level 5: growth control rate is above 85%) | Digitaria sanguinahs (activity level) ([2]; Table 3, dose 60 g a.i./ha): 5 (Level 5: growth control rate is above 85%) | Echinochloa crusgah (activity level) ([3]; Table 2, dose 125 g a.i./ha): 5 (Level 5: growth control rate is above 85%) | Echinochloa crusgah (activity level) ([3]; Table 2, dose 250 g a.i./ha): 5 (Level 5: growth control rate is above 85%) | Setaria viridis (activity level) [4]: 5 (Level 5: growth control rate is above 85%) | Amaranthus retroflexus (activity level) ([5]; Table 2, dose 125 g a.i./ha): 5 (Level 5: growth control rate is above 85%) | Amaranthus retroflexus (activity level) ([5]; Table 2, dose 250 g a.i./ha): 5 (Level 5: growth control rate is above 85%) | Stellaria media (activity level) ([6]; Table 2, dose 125 g a.i./ha): 5 (Level 5: growth control rate is above 85%) | Stellaria media (activity level) ([6]; Table 2, dose 250 g a.i./ha): 5 (Level 5: growth control rate is above 85%) | Echinochloa crusgali (activity level) [7]: 5 (Level 5: growth control rate is above 85%) | Monochoria vaginalis (activity level) [8]: 5 (Level 5: growth control rate is above 85%) | Scirpus juncoides (activity level) [9]: 5 (Level 5: growth control rate is above 85%) | Rice (safety level) [10]: 0 (Level 0: growth control rate is less than 5%)
